In this data set the test system is CCRIS mutagenicity, Ames/micronucleus/aberration tests. Put plainly: CCRIS mutagenicity studies.
The mark [1] stands for this setting: Test System: AMES SALMONELLA TYPHIMURIUM, Strain/Indicator: TA98, Metabolic Activation: NONE, Method: STANDARD PLATE.
Where [2] appears, read: Test System: AMES SALMONELLA TYPHIMURIUM, Strain/Indicator: TA100, Metabolic Activation: NONE, Method: STANDARD PLATE.

Calls of active or inactive are those of the source. The rule behind the calls is not given here.

For the compound `C[C@@H]1CC[C@@]2(OC1)O[C@H]1C[C@H]3[C@@H]4CC=C5C[C@@H](O[C@@H]6O[C@H](CO)[C@@H](O)[C@H](O[C@@H]7O[C@H](CO)[C@@H](O)[C@H](O)[C@H]7O)[C@H]6O[C@@H]6O[C@@H](C)[C@H](O)[C@@H](O)[C@H]6O)CC[C@]5(C)[C@H]4CC[C@]3(C)[C@H]1[C@@H]2C`, the mutagenic call runs as follows: under setting [1], “inactive; negative”; (Test System: AMES SALMONELLA TYPHIMURIUM, Strain/Indicator: TA98, Metabolic Activation: RAT, LIVER, S-9, PHENOBARBITAL, Method: STANDARD PLATE) “inactive; negative”; under setting [2], “inactive; negative”; (Test System: AMES SALMONELLA TYPHIMURIUM, Strain/Indicator: TA100, Metabolic Activation: RAT, LIVER, S-9, PHENOBARBITAL, Method: STANDARD PLATE) “inactive; negative”.
As to `CCOc1ccc(N(O)C(=O)CC(C)O)cc1` (stereo not given), the mutagenic call is, setting by setting: (Test System: AMES SALMONELLA TYPHIMURIUM, Strain/Indicator: TA100, Metabolic Activation: HAMSTER, LIVER, S-9, KANECHLOR 400 (WITHOUT NADPH GENERATING SYSTEM), Method: PREINCUBATION) “active; positive”; (Test System: AMES SALMONELLA TYPHIMURIUM, Strain/Indicator: TA100, Metabolic Activation: NONE, Method: PREINCUBATION) “inactive; negative”.
Take `CC(C)(S)[C@H](N)C(=O)O`: the mutagenic call runs as follows: (Test System: AMES SALMONELLA TYPHIMURIUM, Strain/Indicator: TA92, Metabolic Activation: NONE, Method: STANDARD PLATE) “active; positive”; (Test System: AMES SALMONELLA TYPHIMURIUM, Strain/Indicator: TA92, Metabolic Activation: RAT, KIDNEY, S-9, Method: STANDARD PLATE) “active; positive”; (Test System: AMES SALMONELLA TYPHIMURIUM, Strain/Indicator: TA92, Metabolic Activation: RAT, LIVER, S-9, Method: STANDARD PLATE) “active; positive”; under setting [2], “active; positive”; (Test System: AMES SALMONELLA TYPHIMURIUM, Strain/Indicator: TA100, Metabolic Activation: RAT, KIDNEY, S-9, Method: STANDARD PLATE) “active; positive”; (Test System: AMES SALMONELLA TYPHIMURIUM, Strain/Indicator: TA100, Metabolic Activation: RAT, LIVER, S-9, Method: STANDARD PLATE) “active; positive”. Moreover, where the note is “Test System: AMES SALMONELLA TYPHIMURIUM, Strain/Indicator: TA102, Metabolic Activation: NONE, Method: STANDARD PLATE”, the mutagenic call was “active; positive”.
For the compound `Fc1ccccc1-c1ccccc1`, the mutagenic call was “inactive; negative” (Test System: AMES SALMONELLA TYPHIMURIUM, Strain/Indicator: TA98, Metabolic Activation: HAMSTER, LIVER, S-9, AROCLOR 1254, Method: STANDARD PLATE); “inactive; negative” under setting [1]; “inactive; negative” (Test System: AMES SALMONELLA TYPHIMURIUM, Strain/Indicator: TA98, Metabolic Activation: RAT, LIVER, S-9, AROCLOR 1254, Method: STANDARD PLATE); “inactive; negative” (Test System: AMES SALMONELLA TYPHIMURIUM, Strain/Indicator: TA100, Metabolic Activation: HAMSTER, LIVER, S-9, AROCLOR 1254, Method: STANDARD PLATE); “inactive; negative” under setting [2]; “inactive; negative” (Test System: AMES SALMONELLA TYPHIMURIUM, Strain/Indicator: TA100, Metabolic Activation: RAT, LIVER, S-9, AROCLOR 1254, Method: STANDARD PLATE). In addition, the mutagenic call was “inactive; negative” (Test System: AMES SALMONELLA TYPHIMURIUM, Strain/Indicator: TA1535, Metabolic Activation: HAMSTER, LIVER, S-9, AROCLOR 1254, Method: STANDARD PLATE); “inactive; negative” (Test System: AMES SALMONELLA TYPHIMURIUM, Strain/Indicator: TA1535, Metabolic Activation: NONE, Method: STANDARD PLATE); “inactive; negative” (Test System: AMES SALMONELLA TYPHIMURIUM, Strain/Indicator: TA1535, Metabolic Activation: RAT, LIVER, S-9, AROCLOR 1254, Method: STANDARD PLATE); “inactive; negative” (Test System: AMES SALMONELLA TYPHIMURIUM, Strain/Indicator: TA1537, Metabolic Activation: HAMSTER, LIVER, S-9, AROCLOR 1254, Method: STANDARD PLATE); “inactive; negative” (Test System: AMES SALMONELLA TYPHIMURIUM, Strain/Indicator: TA1537, Metabolic Activation: NONE, Method: STANDARD PLATE); “inactive; negative” (Test System: AMES SALMONELLA TYPHIMURIUM, Strain/Indicator: TA1537, Metabolic Activation: RAT, LIVER, S-9, AROCLOR 1254, Method: STANDARD PLATE). In addition, the mutagenic call was “inactive; negative” (Test System: AMES SALMONELLA TYPHIMURIUM, Strain/Indicator: TA1538, Metabolic Activation: HAMSTER, LIVER, S-9, AROCLOR 1254, Method: STANDARD PLATE); “inactive; negative” (Test System: AMES SALMONELLA TYPHIMURIUM, Strain/Indicator: TA1538, Metabolic Activation: NONE, Method: STANDARD PLATE); “inactive; negative” (Test System: AMES SALMONELLA TYPHIMURIUM, Strain/Indicator: TA1538, Metabolic Activation: RAT, LIVER, S-9, AROCLOR 1254, Method: STANDARD PLATE); “inactive; negative” (Test System: Mouse lymphoma, Strain/Indicator: L5178Y (tk+/tk-), Metabolic Activation: None, Method: Suspension/plate); “inactive; negative” (Test System: Mouse lymphoma, Strain/Indicator: L5178Y (tk+/tk-), Metabolic Activation: Rat, Liver, S-9, Aroclor 1254, Method: Suspension/plate).

Values taken from PubChem BioAssay AID1259407 (Chemical Carcinogenesis Research Information System (CCRIS), 2018).
